Laboratory results reported in patent US9669003B2, “Use of flavone and flavanone derivatives in preparation of sedative and hypnotic drugs” (priority 2012, dated 2017).
Marks after values point to notes of the source that are not given here.

Tested on: Kunming mice
Test: Influence on autonomic activity of normal mice (ZIL-2 mice autonomic activity meter, counts within 10 min)
Assay type: in vivo
Conditions: intragastric, 25 mg/kg, 1 h after administration, x ± s, n = 10
Outline: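 Activity counts during a 10-min window were taken at 1, 2 and 24 h after dosing in groups of 10 mixed-sex Kunming mice. Compounds were given in 0.5% CMC-Na at 25, 50 or 100 mg/kg. Statistics used Levene's homogeneity test, ANOVA and Dunnett's multiple comparisons.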

SMILES	Times of activities in 1 h after drug administration/10 min
COc1ccc(C2CC(=O)c3c(O)c(OC)c(OC)c(OC)c3O2)cc1 (stereo not drawn) [Example 42, 5-hydroxyl-6,7,8,4′-tetramethoxyl-flavanone]	231.2 ± 47.3 /10 min
CC=Cc1cc(Cc2ccccc2)c2c(=O)cc(-c3cc(C#N)c([N+](=O)[O-])c(Cc4ccccc4)c3)oc2c1 [Example 25]	286.3 ± 48.9 /10 min

Same assay, conditions: intragastric, 25 mg/kg, 2 h after administration, x ± s, n = 10

SMILES	Times of activities in 2 h after drug administration/10 min
COc1ccc(C2CC(=O)c3c(O)c(OC)c(OC)c(OC)c3O2)cc1 (stereo not drawn) [Example 42, 5-hydroxyl-6,7,8,4′-tetramethoxyl-flavanone]	233.2 ± 35.1 /10 min
CC=Cc1cc(Cc2ccccc2)c2c(=O)cc(-c3cc(C#N)c([N+](=O)[O-])c(Cc4ccccc4)c3)oc2c1 [Example 25]	279.9 ± 41.7 /10 min

Same assay, conditions: intragastric, 25 mg/kg, 24 h after administration, x ± s, n = 10

SMILES	Times of activities in 24 h after drug administration/10 min
COc1ccc(C2CC(=O)c3c(O)c(OC)c(OC)c(OC)c3O2)cc1 (stereo not drawn) [Example 42, 5-hydroxyl-6,7,8,4′-tetramethoxyl-flavanone]	313.5 ± 68.2 /10 min
CC=Cc1cc(Cc2ccccc2)c2c(=O)cc(-c3cc(C#N)c([N+](=O)[O-])c(Cc4ccccc4)c3)oc2c1 [Example 25]	295.2 ± 82.3 /10 min

Same assay, conditions: intragastric, 50 mg/kg, 1 h after administration, x ± s, n = 10

SMILES	Times of activities in 1 h after drug administration/10 min
COc1ccc(C2CC(=O)c3c(O)c(OC)c(OC)c(OC)c3O2)cc1 (stereo not drawn) [Example 42, 5-hydroxyl-6,7,8,4′-tetramethoxyl-flavanone]	154.5 ± 43.2 /10 min
CC=Cc1cc(Cc2ccccc2)c2c(=O)cc(-c3cc(C#N)c([N+](=O)[O-])c(Cc4ccccc4)c3)oc2c1 [Example 25]	185.3 ± 51.1 /10 min

Same assay, conditions: intragastric, 50 mg/kg, 2 h after administration, x ± s, n = 10

SMILES	Times of activities in 2 h after drug administration/10 min
COc1ccc(C2CC(=O)c3c(O)c(OC)c(OC)c(OC)c3O2)cc1 (stereo not drawn) [Example 42, 5-hydroxyl-6,7,8,4′-tetramethoxyl-flavanone]	145.3 ± 41.3 /10 min
CC=Cc1cc(Cc2ccccc2)c2c(=O)cc(-c3cc(C#N)c([N+](=O)[O-])c(Cc4ccccc4)c3)oc2c1 [Example 25]	190.2 ± 56.9 /10 min

Same assay, conditions: intragastric, 50 mg/kg, 24 h after administration, x ± s, n = 10

SMILES	Times of activities in 24 h after drug administration/10 min
COc1ccc(C2CC(=O)c3c(O)c(OC)c(OC)c(OC)c3O2)cc1 (stereo not drawn) [Example 42, 5-hydroxyl-6,7,8,4′-tetramethoxyl-flavanone]	310.3 ± 62.5 /10 min
CC=Cc1cc(Cc2ccccc2)c2c(=O)cc(-c3cc(C#N)c([N+](=O)[O-])c(Cc4ccccc4)c3)oc2c1 [Example 25]	296.3 ± 91.1 /10 min

Same assay, conditions: intragastric, 100 mg/kg, 1 h after administration, x ± s, n = 10

SMILES	Times of activities in 1 h after drug administration/10 min
COc1ccc(C2CC(=O)c3c(O)c(OC)c(OC)c(OC)c3O2)cc1 (stereo not drawn) [Example 42, 5-hydroxyl-6,7,8,4′-tetramethoxyl-flavanone]	108.5 ± 48.5 /10 min
CC=Cc1cc(Cc2ccccc2)c2c(=O)cc(-c3cc(C#N)c([N+](=O)[O-])c(Cc4ccccc4)c3)oc2c1 [Example 25]	135.6 ± 39.4 /10 min

Same assay, conditions: intragastric, 100 mg/kg, 2 h after administration, x ± s, n = 10

SMILES	Times of activities in 2 h after drug administration/10 min
COc1ccc(C2CC(=O)c3c(O)c(OC)c(OC)c(OC)c3O2)cc1 (stereo not drawn) [Example 42, 5-hydroxyl-6,7,8,4′-tetramethoxyl-flavanone]	104.3 ± 42.5 /10 min
CC=Cc1cc(Cc2ccccc2)c2c(=O)cc(-c3cc(C#N)c([N+](=O)[O-])c(Cc4ccccc4)c3)oc2c1 [Example 25]	136.8 ± 47.9 /10 min

Same assay, conditions: intragastric, 100 mg/kg, 24 h after administration, x ± s, n = 10

SMILES	Times of activities in 24 h after drug administration/10 min
COc1ccc(C2CC(=O)c3c(O)c(OC)c(OC)c(OC)c3O2)cc1 (stereo not drawn) [Example 42, 5-hydroxyl-6,7,8,4′-tetramethoxyl-flavanone]	302.6 ± 69.3 /10 min
CC=Cc1cc(Cc2ccccc2)c2c(=O)cc(-c3cc(C#N)c([N+](=O)[O-])c(Cc4ccccc4)c3)oc2c1 [Example 25]	281.6 ± 93.7 /10 min

Tested on: Kunming mice
Test: Influence on hypnosis effect with pentobarbital sodium doses at the threshold (50 mg/kg i.p.)
Assay type: in vivo
Conditions: 25 mg/kg intragastric single dose, pentobarbital sodium 50 mg/kg i.p. 60 min later, x ± s, n = 10
Outline: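 Pentobarbital sodium (0.3%, 50 mg/kg i.p.) injected 60 min after a single intragastric dose (25, 50, 100 mg/kg, 0.5% CMC-Na vehicle) in Kunming mice, 10 per group, sexes balanced. Onset and length of sleep (righting reflex lost over 1 min) analysed by ANOVA; sleeping incidence by χ2 test.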

SMILES	duration of sleep [min]	time to sleep [min]
COc1ccc(C2CC(=O)c3c(O)c(OC)c(OC)c(OC)c3O2)cc1 (stereo not drawn) [Example 42, 5-hydroxyl-6,7,8,4′-tetramethoxyl-flavanone]	58.90 ± 15.38	4.42 ± 1.65
CC=Cc1cc(Cc2ccccc2)c2c(=O)cc(-c3cc(C#N)c([N+](=O)[O-])c(Cc4ccccc4)c3)oc2c1 [Example 25]	41.02 ± 18.97	4.41 ± 1.67

Same assay, conditions: 50 mg/kg intragastric single dose, pentobarbital sodium 50 mg/kg i.p. 60 min later, x ± s, n = 10

SMILES	duration of sleep [min]	time to sleep [min]
COc1ccc(C2CC(=O)c3c(O)c(OC)c(OC)c(OC)c3O2)cc1 (stereo not drawn) [Example 42, 5-hydroxyl-6,7,8,4′-tetramethoxyl-flavanone]	69.37 ± 20.24	3.30 ± 1.32
CC=Cc1cc(Cc2ccccc2)c2c(=O)cc(-c3cc(C#N)c([N+](=O)[O-])c(Cc4ccccc4)c3)oc2c1 [Example 25]	62.87 ± 28.45	3.84 ± 1.31

Same assay, conditions: 100 mg/kg intragastric single dose, pentobarbital sodium 50 mg/kg i.p. 60 min later, x ± s, n = 10

SMILES	duration of sleep [min]	time to sleep [min]
COc1ccc(C2CC(=O)c3c(O)c(OC)c(OC)c(OC)c3O2)cc1 (stereo not drawn) [Example 42, 5-hydroxyl-6,7,8,4′-tetramethoxyl-flavanone]	78.53 ± 19.87	2.26 ± 1.28
CC=Cc1cc(Cc2ccccc2)c2c(=O)cc(-c3cc(C#N)c([N+](=O)[O-])c(Cc4ccccc4)c3)oc2c1 [Example 25]	70.23 ± 23.65	3.05 ± 1.20

Tested on: Kunming mice
Test: Influence on hypnosis effect with pentobarbital sodium doses below the threshold (25 mg/kg i.p.)
Assay type: in vivo
Conditions: test drug 25 mg/kg intragastric single dose, pentobarbital sodium 25 mg/kg i.p. 60 min later, sleep observed in 30 min, n = 10
Outline: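 Percentage of mice sleeping within 30 min after subthreshold pentobarbital sodium (25 mg/kg i.p.), defined by loss of righting reflex over 1 min, analysed by χ2. Compound in 0.5% CMC-Na given intragastrically at 25/50/100 mg/kg 60 min before; groups of 10 Kunming mice, both sexes.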

SMILES	Number of sleeping animals	rate of sleeping (%)
COc1ccc(C2CC(=O)c3c(O)c(OC)c(OC)c(OC)c3O2)cc1 (stereo not drawn) [Example 42, 5-hydroxyl-6,7,8,4′-tetramethoxyl-flavanone]	5	50** %
CC=Cc1cc(Cc2ccccc2)c2c(=O)cc(-c3cc(C#N)c([N+](=O)[O-])c(Cc4ccccc4)c3)oc2c1 [Example 25]	4	40* %

Same assay, conditions: test drug 50 mg/kg intragastric single dose, pentobarbital sodium 25 mg/kg i.p. 60 min later, sleep observed in 30 min, n = 10

SMILES	Number of sleeping animals	rate of sleeping (%)
COc1ccc(C2CC(=O)c3c(O)c(OC)c(OC)c(OC)c3O2)cc1 (stereo not drawn) [Example 42, 5-hydroxyl-6,7,8,4′-tetramethoxyl-flavanone]	8	80*** %
CC=Cc1cc(Cc2ccccc2)c2c(=O)cc(-c3cc(C#N)c([N+](=O)[O-])c(Cc4ccccc4)c3)oc2c1 [Example 25]	7	70** %

Same assay, conditions: test drug 100 mg/kg intragastric single dose, pentobarbital sodium 25 mg/kg i.p. 60 min later, sleep observed in 30 min, n = 10

SMILES	Number of sleeping animals	rate of sleeping (%)
COc1ccc(C2CC(=O)c3c(O)c(OC)c(OC)c(OC)c3O2)cc1 (stereo not drawn) [Example 42, 5-hydroxyl-6,7,8,4′-tetramethoxyl-flavanone]	9	90*** %
CC=Cc1cc(Cc2ccccc2)c2c(=O)cc(-c3cc(C#N)c([N+](=O)[O-])c(Cc4ccccc4)c3)oc2c1 [Example 25]	7	70** %
